This is an account of results in PMC2120418 (The Journal of Cell Biology, 1995).

The test system of assay [1] is rat CCK-A receptors on CHO-CCKR cells. As to the kind of experiment: Indirect immunofluorescence of surface CCK receptor after agonist occupation. Type of assay: cell-based, rat receptor in CHO cells. Particulars: 10 nM CCK-8, 30 min, 37C.
Assay [2] has as its system dispersed rat pancreatic acini. Particulars: core peptide for the probes; cited from earlier work.

Take “CCK-8: native cholecystokinin hormone, nonfluorescent agonist”: the “Surface immunolabeling of the receptor, level relative to control cells” value in assay [1] came out at 49%.

Take GIy-[(NIe2S.31)CCK26-33]: the “Biological activity of core peptide” value in assay [2] was “fully biologically active”.
